# Source: US20240285599A1, “Mature-Hepatocyte Transdifferentiation Suppressing Composition” (OSAKA UNIVERSITY, priority 2021, published 2024)
# Experiments:
# L-Traf3/PtenDKO mouse = test: Oral NIKSMI in L-Traf3/PtenDKO mouse: liver HE staining, KRT19 immunostaining and KRT19 expression; format: in vivo; conditions: twice a day, 200 mg/kg
# Experimental: A histopathological slide was deparaffinized with xylene and ethanol. HE staining was performed with hematoxylin and eosin. In immunostaining, antigen activation was performed by heating in Target Retrieval Solution (Dako, USA), followed by blocking with bovine serum albumin and a reaction through use of a primary antibody at 4° C. overnight. A frozen section was dried at room temperature, and was blocked with BSA (Nacalai Tesque, Inc., Japan), followed by a reaction through use of a primary antibody in VECTASTAIN ABC Rabbit IgG Kit (Vector Laboratories, Inc., USA). DAB Substrate Kit (Vector Laboratories, Inc., USA) was used in a staining reaction. The following antibodies were used in the immunostaining: KRT19 (1:500 Abcam, ab52625), TRAF3 (1:100 Abcam, ab217033), NIK (1:400 Novus Biologicals, NBP2-23603), p-RIP3K (1:100 Genentech), and KI67 (1:1,000 Cell Signaling, #12202S). […] The number of Ki67-positive cells in a tumor was counted with ImageJ (Fiji). The immunostaining score of TRAF3 or NIK was calculated by multiplying a staining intensity (of from 0 to 3) by a stained area (%). Human ICC patients were grouped into two groups on the basis of the median immunostaining score of TRAF3 or NIK, and were evaluated for their disease-free survival (DFS) or overall survival (OS). […]
# HuCCT1 cell xenograft = test: HuCCT1 xenograft in NOG mouse, oral NIKSMI; format: in vivo; conditions: twice a day, 200 mg/kg
# Experimental: A histopathological slide was deparaffinized with xylene and ethanol. HE staining was performed with hematoxylin and eosin. In immunostaining, antigen activation was performed by heating in Target Retrieval Solution (Dako, USA), followed by blocking with bovine serum albumin and a reaction through use of a primary antibody at 4° C. overnight. A frozen section was dried at room temperature, and was blocked with BSA (Nacalai Tesque, Inc., Japan), followed by a reaction through use of a primary antibody in VECTASTAIN ABC Rabbit IgG Kit (Vector Laboratories, Inc., USA). DAB Substrate Kit (Vector Laboratories, Inc., USA) was used in a staining reaction. […] The number of Ki67-positive cells in a tumor was counted with ImageJ (Fiji). The immunostaining score of TRAF3 or NIK was calculated by multiplying a staining intensity (of from 0 to 3) by a stained area (%). Human ICC patients were grouped into two groups on the basis of the median immunostaining score of TRAF3 or NIK, and were evaluated for their disease-free survival (DFS) or overall survival (OS).
# To generate a xenograft tumor, 5×10^6 HuCCT1 cells were mixed with Matrigel at a ratio of 1:1, and the mixture was subcutaneously injected into each of NOG mice. […] During the period, the diameters of the tumors were measured every 3 days, and the tumor sizes were each calculated by using the following equation. […]
smiles,measurement,setting,value
"COc1cc(C(N)=O)nc(-c2cccc(C#C[C@]3(O)CCN(C)C3=O)c2)c1 [NIKSMI, (R)-6-(3-((3-hydroxy-1-methyl-2-oxopyrrolidin-3-yl)ethynyl)phenyl)-4-methoxypicolinamide]","overgrowth of a cholangiocyte in liver (HE staining, KRT19 immunostaining)","L-Traf3/PtenDKO mouse; 14 days from age 4 weeks, liver at 6 weeks, FIG. 15A",significantly suppressed
same,expression level of the bile duct marker KRT19 in the liver,"L-Traf3/PtenDKO mouse; 14 days, FIG. 15B",significantly suppressed
same,number of Ki67-positive cells in tumors versus vehicle-administered tumors,"HuCCT1 cell xenograft; NOG mouse HuCCT1 xenograft, 14 days, FIG. 23B",significantly lower
same,growth of xenografts derived from the HuCCT1 cells (tumor size),"HuCCT1 cell xenograft; NOG mouse, 14 days from day 28 after transplantation, FIG. 23A",significantly suppressed
